We go through two compounds from patent US20260146025A1, “CRYSTALLINE POLYMORPHS OF MITAPIVAT AND MITAPIVAT HEMISULFATE” (TIANISH LABORATORIES PRIVATE LIMITED, priority 2022, published 2026).

The data set can be described thus: Physical stability of polymorphs on storage, tested by PXRD. Type of data set: physicochemical. The conditions noted are these: for physical stability (PXRD analysis): up to three months. On the procedure:
The powder X-ray diffraction patterns of said polymorphs of the invention were measured on a PANalytical X′Pert PRO powder diffractometer equipped with a goniometer of θ/θ configuration and X'Celerator detector. The Cu-anode X-ray tube was operated at 40 kV and 30 mA. The experiments were conducted over the 2θ range of 2.0°-50.0°, 0.0330 step size and 50 seconds step time.
In yet another embodiment, the physical stability of crystalline mitapivat hemi sulfate Form VII and crystalline mitapivat hemi sulfate Form XI were determined by storing the samples at 40° C./75% relative humidity (RH) and at 25° C./60% RH conditions for three months as shown in Table 1.

Counter-ions that a name gives are not always drawn.

Take `O=C(c1ccc(NS(=O)(=O)c2cccc3cccnc23)cc1)N1CCN(CC2CC2)CC1` [Mitapivat hemi sulfate Form XI, 8-quinolinesulfonamide, N-[4-[[4(cyclopropylmethyl)-1-piperazinyl]carbonyl]phenyl]-, sulfate]: the “PXRD (physical stability)” value (stored at 40° C./75% RH, 2 months) is recorded as “Stable”.

Take `O=C(c1ccc(NS(=O)(=O)c2cccc3cccnc23)cc1)N1CCN(CC2CC2)CC1` [Mitapivat hemi sulfate Form VII, 8-quinolinesulfonamide, N-[4-[[4(cyclopropylmethyl)-1-piperazinyl]carbonyl]phenyl]-, sulfate]: the “physical stability (PXRD analysis)” value (25° C./60% relative humidity (RH)) was “physically stable” and the “physical stability (PXRD analysis)” value (40° C./75% relative humidity (RH)) is recorded as “physically stable”. Moreover, the “PXRD (physical stability)” value is given as “Stable” (stored at 25° C./60% RH, 1 month); “Stable” (stored at 25° C./60% RH, 2 months); “Stable” (stored at 25° C./60% RH, 3 months); “Stable” (stored at 40° C./75% RH, 1 month); “Stable” (stored at 40° C./75% RH, 3 months).
